Tests used:
[1] = tested on: GATA-3; assay: RT-PCR gene expression in stimulated PBMCs: GATA-3; format: cell-based, human; conditions: 10 μg/mL
Experimental: (§1) Quantitative real time PCR was used to detect the epsilon germline transcription. Human PBMC cells (1.5×10^6 cells/mL) were co-incubated with DMF-C1 compound (10 μg/mL) at 37° C. under 5% CO2 for 4 days. Cells were then harvested and total RNA was isolated using Trizol reagent (Gibco BRL, Rockville, Md.) following the manufacturer's instructions. The RNA concentrations were then quantified by triplicate optical density (OD) readings (Bio-Rad SmartSpect 3000; Bio-Rad, Hercules, Calif.). The reverse transcription was performed to get the cDNA using ImProm-II™ Reverse Transcriptase (Promega Corporation, Madison, Wis.) as described by the manufacturer's instructions. The RT-PCR amplification was performed using Maxima™ SYBR Green qPCR Master Mix (2×) kit (Fisher Scientific, Pittsburgh, Pa.) with epsilon germline primers or GAPDH primers. The primer sequences were listed as εGLT forward: 5′-[…]-3′; εGLT reverse: 5′-[…]-3′; GAPDH-forward: 5′-[…]-3′; GAPDH-reverse: 5′-[…]-3′; STAT3-forward: 5′-[…]-3′; STAT3-reverse: 5′-[…]-3′; T-bet-forward: 5′-[…]-3′; T-bet-reverse: 5′-[…]-3′; IFN-γ-forward: 5′-[…]-3′; IFN-γ-reverse: 5′-[…]-3′; IL-10-forward: 5′-[…]-3′; IL-10-reverse: 5′-[…]-3′. IL-5-forward. 5′-[…] TGCA-3′; IL-5-reverse: 5′-[…]-3′. All primers were synthesized by Sigma-Aldrich Corporation (St. Louis, Mo.).

[2] = tested on: human PBMCs; assay: IgE production by PBMCs from food allergic patients stimulated with rIL-4 and anti-CD40 mAb, ELISA; format: cell-based; conditions: 10 days
Experimental: PBMCs were isolated by Ficoll Hypaque (Pharmacia, Piscataway, N.J.) using density gradient centrifugation at 1800 RPM for 30 minutes, and washed 3 times in PBS. To determine the optimal stimulation of IgE production by PBMCs, PBMCs at 1.5×10^6 cells/mL were suspended in complete RPMI medium (200 μM L-glutamine, 1% penicillin/streptomycin, 25 mM HEPES, 10% heat inactivated fetal calf serum), and co-stimulated with human recombinant IL-4 (rIL-4) at 0.01 and 0.1 μg/mL (R&D Systems, Minneapolis, Minn., USA) and anti-CD40 monoclonal antibody (mAb) at […] (R&D) for 10 and 14 days. At the end of incubation, the supernatants were collected and IgE levels were analyzed using ELISA kit (Mabtech Inc, OH). Since PBMCs stimulated with 100 ng/mL rIL-4 and 1 μg/mL anti-CD40 mAb produced the highest level of IgE, we used this culture condition for the subsequent studies. PBMCs were stimulated with 100 ng/mL rIL-4 and 1 μg/mL anti-CD40 mAb and cultured in the presence or absence of 20 μg/mL of the two purified compounds for 10 days for screening active compounds, and at different concentrations (0.15, 0.31, 0.62, 1.25, 2.5, 5, 10 μg/mL) to examine dose responses for the effective compounds. IgE level was evaluated using ELISA. The percentage of IgE inhibition was calculated as follows: […]. In some cases if enough PBMCs were obtained, aliquots of PBMCs prepared from the same individuals were used for different experiments.

[3] = tested on: U266 cells; assay: IgE production by U266 myeloma cells, ELISA of supernatants; format: cell-based, human
Experimental: The IgE producing human U266 myeloma cell line (American Type Culture Collection; Rockville, Md.) has been used for screening pharmaceutical agents for IgE inhibitory effects, and thus this cell line was used to test the potential IgE inhibitory effects of herb extracts and purified compounds. Cells were cultured at 37° C. under 5% CO2 in complete media containing RPMI 1640 medium supplemented, 10% FBS, 1 mM sodium pyruvate, 1×10^-5 M β-ME and 0.5% penicillin-streptomycin. Cells were grown at an initial concentration of 2×10^5 cells/mL. FAHF-2 and B-FAHF-2, individual herb extracts and isolated compounds at different concentrations were added at day 0. Supernatants were harvested after 6 days culture, and IgE levels were determined by using an ELISA Kit (Mabtech Inc, OH). In each experiment, we run duplicate ELISA. In vitro experiments were repeated at least 3 times.
Human U266 myeloma cells (American Type Culture Collection; Rockville, Md.) were cultured in complete medium (RPMI 1640 medium supplemented, 10% FBS, 1 mM sodium pyruvate, 1×10^−5 M β-ME and 0.5% penicillin-streptomycin) at 37° C. under 5% CO2. Cells were grown at an initial concentration of 2×10^5 cells/mL with purpurin and alizarin from Rubia cordifolia L. at different concentrations (0.31, 0.62, 1.25, 2.5, 5 μg/mL), and with arctiin and arctigenin from Arctium lappa L. at different concentrations ([…]) for 6 days. The supernatants were harvested on day 6 for total IgE analysis using ELISA.

[4] = tested on: IFN-γ; assay: RT-PCR gene expression in stimulated PBMCs: IFN-γ; format: cell-based, human; conditions: 10 μg/mL
Experimental: as §1

[5] = tested on: phosphorylated-IκBα; assay: In-Cell Western of phosphorylated IκBα in PBMCs; format: cell-based, human; conditions: 10 μg/mL, vs non-treated stimulated cells
Experimental: PBMCs (1×10^5 cells/mL) were cultured with or without DMF-C1 (10 μg/mL) and stimulated with or without rIL-4 (100 ng/mL) and anti-CD40 (1 μg/mL) mAb for 10 days. In-Cell Western Assay (Li-Cor, Lincoln, Nebr.) was performed following the manufacturer's instructions. In brief, cells were incubated with antibodies against phosphorylated-IκBα (p-IκBα; Cell Signaling) and β-actin (Santa Cruz Biotechnology) overnight. After washing with 0.1% Tween PBS buffer, secondary antibodies IRDye800CW donkey anti-goat and IRDye680 donkey anti-rabbit (LI-Cor) were added and incubated at room temperature for 1 hour in the dark. Plates were scanned and analyzed with Odyssey CLx Infrared Imaging System.

[6] = tested on: IL-5; assay: RT-PCR gene expression in stimulated PBMCs: IL-5; format: cell-based, human; conditions: 10 μg/mL
Experimental: as §1

[7] = tested on: B cells in Human PBMCs; assay: Apoptosis by flow cytometry, annexin V staining of CD19 B cells in PBMCs; format: cell-based; conditions: 10 μg/ml, 2 days incubation
[8] = tested on: IL-10; assay: RT-PCR gene expression in stimulated PBMCs: IL-10; format: cell-based, human; conditions: 10 μg/mL
Experimental: as §1

## COc1ccc2cc3[n+](cc2c1OC)CCc1cc2c(cc1-3)OCO2 [berberine]
[1]
  GATA-3 expression: No significant change
[2]; 20 μg/mL, rIL-4 100 ng/mL + anti-CD40 mAb 1 μg/mL
  inhibition of IgE production by human PBMCs: completely inhibited
[2]; Homo sapiens, PBMC, 240 h, 0.62 μg/mL, read-out: inhibition percentage of IgE production by PBMCs
  inhibition at 0.62 µg/mL: 80.7 ± 9.24%
[2]; Homo sapiens, PBMC, 240 h, rIL-4 + anti-CD40 mAb, read-out: IC50 of inhibition of IgE production by PBMCs
  IC50: 0.2 µg/mL
[3]; Homo sapiens, U-266, 144 h, 20 μg/mL, 6 days
  inhibition at 20 µg/mL: 94.6%
[3]; Homo sapiens, U-266, 144 h, 6 days culture, read-out: IC50 of inhibition of IgE production by U266 cells
  IC50: 3.95 µg/mL
[3]; different concentrations, 6 days
  effect on IgE production by U266 cells (in words): inhibited IgE production in a dose-dependent manner
[4]
  mRNA level of IFN-γ: trend of increase
[5]
  phosphorylated IκBα levels: significantly suppressed
[6]
  mRNA level of IL-5: significantly decreased
[7]
  annexin V stained B cells: about 16%
[8]
  mRNA level of IL-10: trend of increase

Reference: US10500169B2, “Supression of IgE production by compounds derived from traditional chinese medicine” (Sean N. Parker Foundation, priority 2014, dated 2019)
